From patent US12263144B2, “Methods of treating IgA nephropathy with thiol-containing molecules” (Accubit LLC—Biotechnology, priority 2020, dated 2025)

How the values were obtained:
[1] = tested on: glomerular human IgA1 deposition; experiment: Passive mouse model of IgA deposition (human IgA1 injection), glomerular immunofluorescence and blood IgA1; assay type: in vivo, BALB/c mice; details: mice, 200 mg/kg s.c. 2 h before human IgA1 injection, n=6; buffer 2293±163
Experimental: To establish the passive rat model, 5 mg/kg.BW recombinant rat rIgA, which contained a fraction of poly-rIgA, were i.v. injected daily to six 14-weeks old male Wistar rats (Charles River Labs, USA) for 5 consecutive days. Every day, three rats in each group had received a subcutaneous dose of either 250 mg/kg cysteamine, or buffer control, two hours before the rIgA injection. Twenty-four hours after the last injection of rIgA, kidneys were collected for immunofluorescence detection of deposits with goat-anti-rat IgA antibody (Cat: STAR111, Biorad laboratory). Similarly, a passive IgA nephrophathy mouse model was established by injecting 35 mg/kg purified human IgA1 in BALB/c mice (Charles River Labs). Two hours before IgA1 injection, six mice in each experimental group had each received a pretreatment dose of either 200 mg/kg cysteamine, or PBS, via subcutaneous injection. Two and a half hours after human IgA1 injection, kidneys were harvested, and specimens were stained with FITC-conjugated anti-human IgA antibody (Cat: 2050-02, SouthernBiotech). Plasma samples were collected at 0.5 h, 1 h and 2 h after IgA1 injection of all mice.
Frozen tissues were sectioned at 4 μm for IgA detection using goat anti-rat IgA (Cat: STAR111, Bio-Rad Laboratories) at 1:100, or anti-human IgA antibody (Cat: 2050-02, […]) at 1:80 dilution. […]

human IgA1 (poly-IgA1) = molecular target: T1, human IgA1 (poly-IgA1) (Homo sapiens, UniProt P01876); experiment: SEC of native human IgA1 treated ex vivo; assay type: biochemical; details: IgA1 from pooled plasma of IgA nephropathy patients, different concentrations, FIG. 5 C
T1 construct: human IgA1 whole molecule was purified from pooled plasma of IgA nephropathy patients; from tissue
T1 sequence (P01876 1-353 isoform P01876-1): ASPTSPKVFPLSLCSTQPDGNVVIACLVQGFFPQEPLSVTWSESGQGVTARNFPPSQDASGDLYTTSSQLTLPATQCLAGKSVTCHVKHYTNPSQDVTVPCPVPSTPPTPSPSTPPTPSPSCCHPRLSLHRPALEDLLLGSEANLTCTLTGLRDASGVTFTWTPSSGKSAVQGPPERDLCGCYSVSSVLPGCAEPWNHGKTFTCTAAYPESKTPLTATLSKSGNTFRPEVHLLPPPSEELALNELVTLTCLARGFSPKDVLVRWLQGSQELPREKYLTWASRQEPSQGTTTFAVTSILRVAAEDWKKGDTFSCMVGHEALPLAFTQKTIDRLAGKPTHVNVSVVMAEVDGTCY
Description: IgA1 from IgA nephropathy patient sera was purified by Jacalin (Thermo Scientific, USA)-directed affinity chromatography. Poly-IgA1 contents were further enriched via running Superdex 200 Increase gel filtration molecular sieve (GE Biosciences) and collecting high-molecular weight fractions from an AKTA protein purification system (GE Biosciences). Human serum from healthy donors was purchased from Sigma-Aldrich and total IgA1 was also purified by running Jacalin-directed chromatography. Purified total IgA1 was used for injecting mice.
The overall complex size of IgA aggregates was determined either by size-exclusion chromatography (SEC: Superdex 200 Increase 10/300 by GL Cytiva), or by SDS-PAGE. For evaluating the involvement of intermolecular disulfide connectivity in IgA complexes, IgA samples were treated with either reducing agents, such as DTT, TCEP or reduced glutathione (Sigma), or interventional drugs, such as cysteamine (Sigma), WR-1065 (Sigma) and N-Acetyl-L-cysteine (VWR Chemicals) in phosphate-buffered saline (PBS) pH7.4. Before running on SEC, samples were treated with the drugs at indicated concentrations at 37° C. for one hour.
In the meantime, the SEC column was also equilibrated with PBS supplemented with the reducing agent at the same concentration. For running SEC, 100 μL of the recombinant IgA (concentration varies between 1 mg/mL and 8 mg/mL) or purified native human IgA1 (˜1 mg/mL) was loaded to the column and UV absorption was recorded following elution. Recombinant IgA typically formed two elution peaks: a minor peak of ˜800 kDa poly-rIgA followed by a major peak of ˜170 kDa of monomeric rIgA. The ratios between poly-rIgA and mono-rIgA were calculated as between the corresponding areas under the curve (AUC), and the treatment effect of the thiol agents was judged by the reduction of the poly-rIgA level with a compensatory increase of the mono-rIgA content.
In addition, human IgA1 whole molecule was purified from pooled plasma of IgA nephropathy patients and subjected the sample to different concentrations of cysteamine (FIG. 5, part C). […]

- poly-IgA1 amount (SEC) (human IgA1 (poly-IgA1)): reduced the amounts of poly-IgA1
Structure (SMILES): NCCS [cysteamine]
- glomerular IgA1 intensity (Mean±SEM) [1]: 870±193
